Data published in US5254584A, “N-acetonylbenzamides and their use as fungicides” (Rohm and Haas Company, priority 1992, dated 1993).
Converted amounts (≈) assume the structure as drawn.

How the values were obtained:
[1] = tested on: Pseudoperonospora cubensis; assay: Cucumber Downy Mildew (CDM); settings: in vivo
[2] = tested on: Pseudocercosporella herpotrichoides; assay: microbe, parasite or virus in culture; format: cell-based; settings: Oculimacula yallundae, 72 h, 3 days at room temperature, read-out: PSH percent inhibition of fungal growth
[3] = tested on: Colletotrichum lagenarium; assay: microbe, parasite or virus in culture; format: cell-based; settings: Colletotrichum orbiculare, 72 h, 3 days at room temperature, read-out: COL percent inhibition of fungal growth
[4] = Tobacco root assay for phytotoxicity (in vitro root elongation); settings: 7 days, 27° C., read-out: Tob. EC50
Description: The compounds of Examples 1-20 were tested in vitro for fungicidal activity and phytotoxicity.
B. The compounds were tested in vitro for phytotoxicity in a tobacco root elongation assay.
Tobacco root assay for Phytotoxicity:
A dilution series of test compound was prepared in dimethylsulfoxide and 20 ul of each dilution was added to 20 ml of molten nutrient medium, consisting of Murashige and Skoog salt base, 2% sucrose and 1% agar, to give the desired concentrations of test compound. The mixtures were poured immediately into 9 cm diameter petri dishes. Surface-sterilized tobacco seeds were placed on each plate (20 seeds per plate) and the plates incubated in a vertical position in a 27° C. incubator with a 16 hour photoperiod. After 7 days the mean root lengths were calculated, and EC50 values determined from dose response curves.
Results of the tobacco root assay are set forth below in Table 3 as Tob. EC50 (ppm).

[5] = tested on: Erysiphe graminis (f. sp. tritici); assay: Wheat Powdery Mildew (WPM); format: in vivo; settings: 300 g/Ha; 8 to 10 days after inoculation; Pennol wheat
Description: Wheat Powdery Mildew (WPM) Erysiphe graminis (f. sp. tritici) was cultured on Pennol wheat seedlings in a controlled temperature room at 65° F. to 75° F. Mildew spores were shaken from the culture plants onto Pennol wheat seedlings which had been sprayed previously with the fungicide compound. The inoculated seedlings were kept in a controlled temperature room at 65° F. to 75° F. and subirrigated. […] The fungicidal activity of compound of Example 12 against the above discussed phytopathogenic fungi is set forth in Table 5 as percent disease control at an application rate of 300 g/Ha.

[6] = tested on: Botrytis cinerea; assay: Fungitoxicity assay against Botrytis cinerea (in vitro, colony diameter); format: cell-based; settings: 48 hours at 25° C., read-out: Botrytis EC50
Description: The compounds of Examples 1-20 were tested in vitro for fungicidal activity and phytotoxicity. A. The compounds were tested in vitro for fungicidal activity against Pythium ultimum, Botrytis cinerea and Venturia inaequalis. Fungitoxicity assay against Botrytis cinerea: […] The mixtures were poured immediately into 9 centimeter (cm) diameter petri dishes. Two replicate plates were used for each treatment. Each plate was inoculated with a 7 mm diameter plug taken from the growing edge of a 5 day old culture of B. cinerea on potato dextrose agar. […] Results of the testing for fungicidal activity against the above named fungi are set forth below in Table 3 as Pythium EC50 (ppm), Botrytis EC50 (ppm) and Venturia MIC (ppm), respectively.

[7] = tested on: tomato plants; assay: In vivo phytotoxic activity, foliar spray, tomato; design: key: +: indicating presence of a plant growth regulatory effect as compared to a control to which a solvent mixture (acetone/water/methanol) lacking the test compound was applied; 0: A zero indicates no apparent effect; settings: foliar spray 2200 g/Ha, seven days after application
Description: (§1) The compounds of Examples 1 and 12 were tested in vivo for phytotoxic activity by applying the compounds to the foliage of cucumber, tomato, bean, lettuce and strawberry plants as a spray at a rate of 2200 g/Ha. The plants were evaluated seven days after spray application of the compounds.
(§2) Phototoxicity scores are set forth below in Table 6. The phytotoxicity scores use a symbol, "+", indicating presence of a plant growth regulatory effect as compared to a control to which a solvent mixture (acetone/water/methanol) lacking the test compound was applied. A zero indicates no apparent effect. Each score is a composite representing the mode value for three replicate plants.

[8] = tested on: Botrytis cinerea; assay: Botrytis Gray Mold on Tomato (BOT); format: in vivo; settings: 300 g/Ha, 5-7 days
[9] = tested on: Rhizoctonia solani; assay: microbe, parasite or virus in culture; format: cell-based; settings: 72 h, 3 days at room temperature, read-out: RHI percent inhibition of fungal growth
[10] = tested on: Cercospora beticola; assay: microbe, parasite or virus in culture; format: cell-based; settings: 72 h, 3 days at room temperature, read-out: CER percent inhibition of fungal growth
[11] = tested on: Plasmopara viticola; assay: Downy Mildew of Grapes (GDM); format: in vivo; settings: 300 g/Ha; 7-8 days; grape
[12] = tested on: Pythium ultimum; assay: Fungitoxicity assay against Pythium ultimum (in vitro, mycelial dry weight); format: cell-based; settings: Globisporangium ultimum, 48 hours at 25° C., read-out: Pythium EC50
Description: The compounds of Examples 1-20 were tested in vitro for fungicidal activity and phytotoxicity. A. The compounds were tested in vitro for fungicidal activity against Pythium ultimum, Botrytis cinerea and Venturia inaequalis. Fungitoxicity assay against Pythium ultimum: A dilution series of test compound was prepared in dimethylsulfoxide, and 0.1 milliliter (ml) of each dilution was added to 19.9 ml of a liquid asparagine-sucrose broth ([…]. and Katznelson, K., 1971, Can. J. […] Each plate was inoculated with a mycelial plug, 7 millimeters (mm) in diameter, taken from the growing edge of a culture of Pythium ultimum grown on potato dextrose agar. Two replicate plates were used for each treatment. The increase in mycelial dry weight was determined after growth for 48 hours at 25° C. with shaking on a gyrotary shaker at 60 revolutions per minute (rpm). EC50 values were calculated from dose response curves. As used herein, the terminology "EC50" means the concentration of test compound required to inhibit growth by 50% as compared to a control lacking the test compound. Results of the testing for fungicidal activity against the above named fungi are set forth below in Table 3 as Pythium EC50 (ppm), Botrytis EC50 (ppm) and Venturia MIC (ppm), respectively.

[13] = tested on: Piricularia oryzae; assay: organism not typed; format: cell-based; settings: 72 h, read-out: PIR percent inhibition of fungal growth
[14] = tested on: Botrytis cinerea; assay: microbe, parasite or virus in culture; format: cell-based; settings: 72 h, 3 days at room temperature, read-out: BOC percent inhibition of fungal growth
[15] = tested on: Plasmopara viticola; assay: Downy Mildew of Grapes--Curative (GDC); settings: in vivo
[16] = tested on: Pythium ultimum; assay: microbe, parasite or virus in culture; format: cell-based; settings: Globisporangium ultimum, 72 h, 3 days at room temperature, read-out: PYU percent inhibition of fungal growth
[17] = tested on: cucumber plants; assay: In vivo phytotoxic activity, foliar spray, cucumber; design: key: +: indicating presence of a plant growth regulatory effect as compared to a control to which a solvent mixture (acetone/water/methanol) lacking the test compound was applied; 0: A zero indicates no apparent effect; settings: foliar spray 2200 g/Ha, seven days after application
Description: as §1, §2

[18] = tested on: lettuce plants; assay: In vivo phytotoxic activity, foliar spray, lettuce; design: key: +: indicating presence of a plant growth regulatory effect as compared to a control to which a solvent mixture (acetone/water/methanol) lacking the test compound was applied; 0: A zero indicates no apparent effect; settings: foliar spray 2200 g/Ha, seven days after application
Description: as §1, §2

CCC(C)(NC(=O)c1cc(C)cc(C=NOC)c1)C(=O)CCl (stereo not drawn) [Example 12, N-[3'-(1'-chloro-3'-methyl-2'-oxopentan)]-3-methoxyiminomethyl-5-methylbenzamide]
CDM percent disease control [1]: 99% | inhibition at 25 ppm [2]: 100% | inhibition at 25 ppm [3]: 100% | IC50 at 168 h [4]: 0.38 µg/mL (≈ 1.17 µM) | WPM percent disease control [5]: 75% | IC50 [6]: 0.28 µg/mL (≈ 0.862 µM) | phytotoxicity score, Tomato [7]: 0 | BOT percent disease control [8]: 100% | inhibition at 25 ppm [9]: 0% | inhibition at 25 ppm [10]: 100% | GDM percent disease control [11]: 100% | IC50 [12]: 0.16 µg/mL (≈ 0.493 µM) | inhibition at 25 ppm [13]: 100% | inhibition at 25 ppm [14]: 100% | GDC percent disease control [15]: 50% | inhibition at 25 ppm [16]: 100% | phytotoxicity score, Cucumber [17]: 0 | phytotoxicity score, Lettuce [18]: 0
